Each structure is given as a SMILES string.

The inhibition is the relative decrease from the control value, in per cent.

The subject of the assay is human hepatoma Huh-7 cell line harboring a HCV replicon. Description: HCV replicon assay (inhibition of viral replication, luciferase readout). The class given is cell-based. Conditions: Hepatitis C virus, 72 h, Huh-7 HCV replicon cells, 3 days incubation. Summed up:
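Huh-7 replicon cells were exposed to 10-point 3-fold compound dilutions (0.44% DMSO) for 3 days at 37 °C. Replicon replication was read by Dual-Glo luciferase, with background from protease-inhibitor wells subtracted, and viability by calcein AM. EC50/CC50 came from a Hill-equation fit versus DMSO controls.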
In general terms: A replicon is a self-replicating genome or part of one, used to study replication in cells.
`CC(C)(C)C#Cc1cc(N(C(=O)[C@H]2CC[C@H](C)CC2)[C@H]2CC[C@H](Oc3cccc(C(F)(F)F)n3)CC2)c(C(=O)O)s1` [Compound 17, 5-(3,3-Dimethyl-but-1-ynyl)-3-{(trans-4-methyl-cyclohexanecarbonyl)-[trans-4-(6-trifluoromethyl-pyridin-2-yloxy)-cyclohexyl]-amino}-thiophene-2-carboxylic acid] gave an inhibition at 2 µM of 67.6%.
For `CC(C)(C)C#Cc1cc(N(C(=O)[C@H]2CC[C@H](C)CC2)[C@H]2CC[C@@H](O[C@H]3CCOC3)CC2)c(C(=O)O)s1` [Compound 332, 5-(3,3-Dimethyl-but-1-ynyl)-3-{(trans-4-methyl-cyclohexanecarbonyl)-[4-(tetrahydro-furan-3(S)-yloxy)-cis-cyclohexyl]-amino}-thiophene-2-carboxylic acid] the value was 99.9%; for `CC(C)(C)C#Cc1cc(N(C(=O)[C@H]2CC[C@H](C)CC2)[C@H]2CC[C@H](Sc3cccs3)CC2)c(C(=O)O)s1` [Compound 93, 5-(3,3-Dimethylbut-1-ynyl)-3-(4-methyl-N-(4-(thiophen-2-ylthio)cyclohexyl)cyclohexanecarboxamido)thiophene-2-carboxylic acid], 98.1%; for `CC(C)(C#Cc1cc(N(C(=O)[C@H]2CC[C@H](C)CC2)[C@H]2CC[C@H](OC3CCOC3)CC2)c(C(=O)O)s1)CCO` (some centres unmarked) [Compound 314, 5-(5-Hydroxy-3,3-dimethyl-pent-1-ynyl)-3-{(4-methyl-cyclohexanecarbonyl)-[4-(tetrahydro-furan-3-yloxy)-cyclohexyl]-amino}-thiophene-2-carboxylic acid], 99.9%.
The same measure for `CC1CCC(C(=O)N(c2cc(C#CC(C)(C)C)sc2C(=O)O)[C@H]2CC[C@H](Oc3ccnc(CN4CCCC4)c3)CC2)CC1` (some centres unmarked) [Compound 199, 3-[[-4-(2-pyrrolidin-1-ylmethyl-pyridin-4-yloxy)-cyclohexyl]-(4-methyl-cyclohexanecarbonyl)-amino]-5-(3,3-dimethyl-but-1-ynyl)-thiophene-2-carboxylic acid]: 99.9%; for `Cn1nccc1S(=O)(=O)N1CCC(N(c2cc(C#CC(C)(C)C)sc2C(=O)O)C(=O)[C@H]2CC[C@H](C)CC2)CC1` [Compound 203, 5-(3,3-Dimethyl-but-1-ynyl)-3-{(4-methyl-cyclohexanecarbonyl)-[1-(2-methyl-2H-pyrazole-3-sulfonyl)-piperidin-4-yl]-amino}-thiophene-2-carboxylic acid]: 99.8%; for `CC1CCC(C(=O)N(c2cc(C#CC(C)(C)C)sc2C(=O)O)[C@H]2CC[C@H](Oc3cnccc3CN3CCC(N(C)C)C3)CC2)CC1` (some centres unmarked) [Compound 195, 3-[[-4-(3-dimethylamino-pyrrolidin-1-ylmethyl-pyridin-3-yloxy)-cyclohexyl]-(4-methyl-cyclohexanecarbonyl)-amino]-5-(3,3-dimethyl-but-1-ynyl)-thiophene-2-carboxylic acid]: 99.7%.
The same measure for `C[C@H]1CC[C@H](C(=O)N(c2cc(C#CC3(C(F)(F)F)CCC3)sc2C(=O)O)[C@H]2CC[C@H](Oc3ccc(O)nn3)CC2)CC1` [Compound 339, 3-((1r,4R)—N-((1r,4R)-4-(6-hydroxypyridazin-3-yloxy)cyclohexyl)-4-methylcyclohexanecarboxamido)-5-((1-(trifluoromethyl)cyclobutyl)ethynyl)thiophene-2-carboxylic acid]: 99.9%; for `CC1CCC(C(=O)N(c2cc(C#CC(C)(C)C)sc2C(=O)O)[C@H]2CC[C@H](Oc3cc(CN4CCOCC4)ccn3)CC2)CC1` (some centres unmarked) [Compound 28, 5-(3,3-Dimethyl-but-1-ynyl)-3-{(4-methyl-cyclohexanecarbonyl)-[4-(4-morpholin-4-ylmethyl-pyridin-2-yloxy)-cyclohexyl]-amino}-thiophene-2-carboxylic acid]: 99.7%; for `CN1CCC(NC(=O)c2ccnc(O[C@H]3CC[C@H](N(c4cc(C#CC(C)(C)C)sc4C(=O)O)C(=O)[C@H]4CC[C@H](C)CC4)CC3)c2)CC1` [Compound 167, Sodium 3-(N-(4-(4-((1-methylpiperidin-4-yl)carbamoyl)pyridin-2-yloxy)cyclohexyl)-4-methylcyclohexanecarboxamido)-5-(3,3-dimethylbut-1-ynyl)thiophene-2-carboxylate]: 99.9%.
As for `CN(C)Cc1ccnc(O[C@H]2CC[C@H](N(c3cc(C#CC4(C(F)(F)F)CC4)sc3C(=O)O)C(=O)[C@H]3CC[C@H](C)CC3)CC2)c1` [Compound 340, 3-((1r,4R)—N-((1r,4R)-4-(4-((dimethylamino)methyl)pyridin-2-yloxy)cyclohexyl)-4-methylcyclohexanecarboxamido)-5-((1-(trifluoromethyl)cyclopropyl)ethynyl)thiophene-2-carboxylic acid], testing at 2 µM gave an inhibition of 100%.
`CC(C)(C)C#Cc1cc(N(C(=O)[C@H]2CC[C@H](C)CC2)[C@H]2CCN(S(=O)(=O)c3ccccn3)C2)c(C(=O)O)s1` [Compound 215, 5-(3,3-Dimethyl-but-1-ynyl)-3-{(4-methyl-cyclohexanecarbonyl)-[1-(pyridine-2-sulfonyl)-pyrrolidin-3-yl]-amino}-thiophene-2-carboxylic acid] registered an inhibition at 2 µM of 100%.
For `CC1=CCC(C(=O)N(c2cc(C#CC(C)(C)C)sc2C(=O)O)[C@H]2CC[C@H](O[C@H]3CCOC3)CC2)[C@@H](C)C1` (single isomer, unassigned) [Compound 302, 5-(3,3-dimethyl-but-1-ynyl)-3-{(4,6S-dimethyl-cyclohex-3-enecarbonyl)-[4-(tetrahydro-furan-3S-yloxy)-trans-cyclohexyl]-amino}-thiophene-2-carboxylic acid] the value was 100%.
The same measure for `CC(C)(C)C#Cc1cc(N(C(=O)[C@H]2CC[C@H](C)CC2)[C@H]2CC[C@@H](Sc3nccs3)CC2)c(C(=O)O)s1` [Compound 107, 5-(3,3-Dimethylbut-1-ynyl)-3-(4-methyl-N-(4-(thiazol-2-ylthio)cyclohexyl)cyclohexanecarboxamido)thiophene-2-carboxylic acid]: 98.9%; for `C[C@H]1CC[C@H](C(=O)N(c2cc(C#CC3(C(F)(F)F)CC3)sc2C(=O)O)[C@H]2CC[C@H](Oc3ccncn3)CC2)CC1` [Compound 344, 3-((1r,4R)-4-methyl-N-((1r,4R)-4-(pyrimidin-4-yloxy)cyclohexyl)cyclohexanecarboxamido)-5-(2-(1-(trifluoromethyl)cyclopropyl)ethynyl)thiophene-2-carboxylic acid]: 99.8%.
For `Cc1ccc(O[C@H]2CC[C@H](N(c3cc(C#CC(C)(C)C)sc3C(=O)O)C(=O)[C@H]3CC[C@H](C)CC3)CC2)nc1` [Compound 11, 5-(3,3-Dimethyl-but-1-ynyl)-3-{(trans-4-methyl-cyclohexanecarbonyl)-[trans-4-(5-methyl-pyridin-2-yloxy)-cyclohexyl]-amino}-thiophene-2-carboxylic acid] the value was 99.9%.
`CC(C)(C)C#Cc1cc(N(C(=O)[C@H]2CC[C@H](C)CC2)C2CCN(S(=O)(=O)c3cccs3)CC2)c(C(=O)O)s1` [Compound 207, 5-(3,3-Dimethyl-but-1-ynyl)-3-{(4-methyl-cyclohexanecarbonyl)-[1-(thiophene-2-sulfonyl)-piperidin-4-yl]-amino}-thiophene-2-carboxylic acid] registered an inhibition at 2 µM of 99.8%.

For the origin of these results see patent publication US8569302B2, “Inhibitors of flaviviridae viruses” (Gilead Sciences, Inc., priority 2009, dated 2013).
